Test results from patent US20250311722A1, “IMPROVED BIOCIDE” (Purgos ApS, priority 2022, published 2025).
Values joined by “and” are separate entries in the source; they are usually repeats but may differ in a detail not shown here. Equal values may be shown once.

Legend:
Format in all cases: cell-based
[1] = tested on: selected typical species of contaminants; test: Substitution of conventional biocides with NBDA in products, LuminUltra test against controls
Excerpt: A test sample (T): In a known recipe for a product comprising one or more conventional biocide(s), said biocide(s) is replaced with NBDA (or another tert, amine according to the present invention).
A control sample (C): Product comprising one or more conventional biocide(s) produced following an established recipe.
A negative control sample (N): A further negative control may be provided by removing said conventional biocide(s) from the recipe, without addition of NBDA (or other biocides). Provision and test of the N-sample can be optional.
Samples, such as test-, control- and/or negative control samples are provided according to Example 3. To assess the effect of the biocide(s), microbial contamination is measured, such as according to Example 6, or other conventional methods known in the art.
In short, samples are exposed to microbial contamination (microbial stress test) e.g. by opening a lid and closing it for a defined period of time, or other operations, mimicking a conventional user situation. Alternatively, samples can be inoculated with defined quantities of microorganisms, such as one or more indicator microorganism.
The samples can be divided into different aliquots, and incubated for selected periods at one or more relevant temperatures, such as e.g. one or more of 4° C., room temperature (RT, usually 20° C., 22° C., or 25° C.), 30° C., 32° C., 37° C., 40° C., and/or 60° C.), simulating e.g. appropriate storage, processing and usage conditions.
ATP, such as intracellular ATP is measured using a commercially available system, such as provided by LumiUltra®, in particular a method using luminase (Aqua Tools, see details below).
In short, a buffering solution and Luminase enzyme are mixed. After daily ATP standard calibration, an aliquot, such as 1 ml of sample is transferred to an 1 ml extraction tube. After dilution in UltraLute resin, the total ATP (content can be established in the luminescence measuring device. 2) 1 ml sample is dissolved in LumiSolve stabilizing agent. […] For further details, see e.g. Aqua Tools (78300 Poissy, France) Quick reference guide QuenchGone21™ Speciality Test Kit QG21S-50/QG21St-100 2G.

[2] = tested on: Bacillus cereus ISI 842; test: Minimum bactericidal concentration (MBC); set-up: MBC data (outgrowth): unit not given here
Excerpt: (§1) Even when no growth is detectable in the MIC tests, it is possible that the microorganisms have survived the treatment i.e., they are not killed but just prevented from growing. In order to test for survivors, MBC plates were subsequently made from the MIC plates.

[3] = tested on: Candida albicans ISI 1226; test: Minimum bactericidal concentration (MBC); set-up: MBC data (outgrowth): unit not given here
Excerpt: as §1

[4] = tested on: Lactobacillus brevis ISI 2269; test: Minimum bactericidal concentration (MBC); set-up: MBC data (outgrowth): unit not given here
Excerpt: as §1

[5] = tested on: Listeria monocytogenes ISI 22; test: Minimum bactericidal concentration (MBC); set-up: MBC data (outgrowth): unit not given here
Excerpt: as §1

[6] = tested on: Pseudomonas aeruginosa ISI 1462; test: Minimum bactericidal concentration (MBC); set-up: MBC data (outgrowth): unit not given here
Excerpt: as §1

[7] = tested on: Salmonella Infantis ISI 170; test: Minimum bactericidal concentration (MBC); set-up: MBC data (outgrowth): unit not given here
Excerpt: as §1

[8] = tested on: Streptococcus termophilus ISI 1563; test: Minimum bactericidal concentration (MBC); set-up: MBC data (outgrowth): unit not given here
Excerpt: as §1

[9] = tested on: Aspergillus niger ISI 3; test: Minimum bactericidal concentration (MBC)
Excerpt: as §1

CCCCN(CCO)CCO [NBDA, N-butyldiethanolamine]
biocidal protection ([1]; SBR precoat composition for carpets, MIT/BIT substituted with 0.5% NBDA): same performance as the origin
biocidal effect ([1]; Styrene-Butadiene-Rubber (SBR)-emulsion, MIT and/or BIT replaced, 32° C.): comparable and better than the normal biocide package
biocidal effect ([1]; algae removing compound, benzalkonium chloride replaced with 1-5%, 32° C.): comparable or even surpassing benzalkonium chloride in function
biocidal effect ([1]; circulating heat-transfer systems, benzalkonium chloride replaced with 1-5%, 32° C.): comparable to benzalkonium chloride
biocidal effect ([1]; combination dispersions, emulsions, suspensions, 32° C.): comparable and better than the normal biocide package
biocidal effect ([1]; disinfection compound for pipes, benzalkonium chloride replaced with 1-5%, 32° C.): comparable to benzalkonium chloride
preservation effect ([1]; food, preservatives substituted with comparable amounts of NBDA): suitable preservation effect(s) as the beforementioned preservative(s)
biocidal effect ([1]; hand cleanser, sodiumbenzoate, MIT and BIT replaced, 32° C.): comparable or even better than the normal biocide package
biocidal effect ([1]; liquid dishwashing compound, MIT/BIT replaced with 0.01-1%, 32° C.): comparable to or even surpassing the conventional biocide
biocidal effect ([1]; liquid disinfection compound, benzalkonium chloride replaced with 1-5%, 32° C.): comparable or even surpassing benzalkonium chloride in function
biocidal effect ([1]; moisturizing crème, benzoate and commercial biocides replaced, 32° C.): comparable or even better than the normal biocide package
biocidal effect ([1]; soap, sodiumbenzoate, MIT and BIT replaced, 32° C.): comparable or even better than the normal biocide package
biocidal effect ([1]; stabilized suspension, MIT and BIT replaced, 32° C.): comparable and better than the normal biocide package
biocidal effect ([1]; swimming pool water, chlorine compounds replaced, 32° C.): comparable or even better than chlorine based traditional solutions
biocidal effect ([1]; toothpaste, benzoate (e.g. 0.5%) replaced with similar concentration): comparable or even better than benzoate
biocidal effect ([1]; veterinary disinfection compound, benzalkonium chloride and/or glutaraldehyde replaced with 1-5%, 32° C.): comparable or even surpassing both benzalkonium chloride and glutaraldehyde in function
biocidal effect ([1]; waterborne cooling compound, benzalkonium chloride replaced with 1-5%, 32° C.): comparable or surpassing benzalkonium chloride
biocidal effect ([1]; watersystems for toilets, washing facilities, benzalkonium chloride replaced with 1-5%, 32° C.): comparable to benzalkonium chloride
MBC (%) [2]: 1.25%
MBC data (outgrowth) ([2]; 0.02% NBDA): 1.261 and 1.253
MBC data (outgrowth) ([2]; 0.04% NBDA): 1.106 and 1.352
MBC data (outgrowth) ([2]; 0.08% NBDA): 1.098 and 1.118
MBC data (outgrowth) ([2]; 0.16% NBDA): 1.286 and 1.086
MBC data (outgrowth) ([2]; 0.31% NBDA): 1.277 and 1.161
MBC data (outgrowth) ([2]; 0.63% NBDA): 1.117 and 1.001
MBC data (outgrowth) ([2]; 1.25% NBDA): 0.075 and 0.076
MBC data (outgrowth) ([2]; 2.50% NBDA): 0.072 and 0.078
MBC data (outgrowth) ([2]; 5.00% NBDA): 0.066
MBC (%) [3]: 1.25%
MBC data (outgrowth) ([3]; 0.02% NBDA): 1.332 and 1.357
MBC data (outgrowth) ([3]; 0.04% NBDA): 1.291 and 1.314
MBC data (outgrowth) ([3]; 0.08% NBDA): 1.278 and 1.314
MBC data (outgrowth) ([3]; 0.16% NBDA): 1.171 and 1.485
MBC data (outgrowth) ([3]; 0.31% NBDA): 1.168 and 1.175
MBC data (outgrowth) ([3]; 1.25% NBDA): 0.079 and 0.080
MBC data (outgrowth) ([3]; 2.50% NBDA): 0.074 and 0.075
MBC data (outgrowth) ([3]; 5.00% NBDA): 0.068
MBC (%) [4]: 0.31%
MBC data (outgrowth) ([4]; 0.02% NBDA): 0.446 and 0.463
MBC data (outgrowth) ([4]; 0.04% NBDA): 0.439 and 0.455
MBC data (outgrowth) ([4]; 0.08% NBDA): 0.447 and 0.470
MBC data (outgrowth) ([4]; 0.16% NBDA): 0.755 and 1.060
MBC data (outgrowth) ([4]; 0.31% NBDA): 0.078 and 0.077
MBC data (outgrowth) ([4]; 0.63% NBDA): 0.208 and 0.248
MBC data (outgrowth) ([4]; 1.25% NBDA): 0.077
MBC data (outgrowth) ([4]; 2.50% NBDA): 0.075 and 0.077
MBC data (outgrowth) ([4]; 5.00% NBDA): 0.067 and 0.068
MBC (%) [5]: 2.5%
MBC data (outgrowth) ([5]; 0.02% NBDA): 1.197 and 1.009
MBC data (outgrowth) ([5]; 0.04% NBDA): 1.195 and 1.097
MBC data (outgrowth) ([5]; 0.08% NBDA): 1.201 and 1.059
MBC data (outgrowth) ([5]; 0.16% NBDA): 1.216 and 1.141
MBC data (outgrowth) ([5]; 0.31% NBDA): 1.320 and 1.310
MBC data (outgrowth) ([5]; 0.63% NBDA): 1.496 and 1.507
MBC data (outgrowth) ([5]; 1.25% NBDA): 1.517 and 1.533
MBC data (outgrowth) ([5]; 2.50% NBDA): 0.065 and 0.070
MBC data (outgrowth) ([5]; 5.00% NBDA): 0.060 and 0.062
MBC (%) [6]: 1.25%
MBC data (outgrowth) ([6]; 0.02% NBDA): 1.360 and 2.248
MBC data (outgrowth) ([6]; 0.04% NBDA): 2.186 and 1.311
MBC data (outgrowth) ([6]; 0.08% NBDA): 1.779 and 2.051
MBC data (outgrowth) ([6]; 0.16% NBDA): 1.680 and 2.303
MBC data (outgrowth) ([6]; 0.31% NBDA): 1.477 and 1.570
MBC data (outgrowth) ([6]; 0.63% NBDA): 1.909 and 1.789
MBC data (outgrowth) ([6]; 1.25% NBDA): 0.071 and 0.070
MBC data (outgrowth) ([6]; 2.50% NBDA): 0.071 and 0.069
MBC data (outgrowth) ([6]; 5.00% NBDA): 0.066 and 0.061
MBC (%) [7]: 1.25%
MBC data (outgrowth) ([7]; 0.02% NBDA): 1.732 and 1.806
MBC data (outgrowth) ([7]; 0.04% NBDA): 1.858 and 1.853
MBC data (outgrowth) ([7]; 0.08% NBDA): 1.841 and 1.791
MBC data (outgrowth) ([7]; 0.16% NBDA): 1.826 and 1.827
MBC data (outgrowth) ([7]; 0.31% NBDA): 1.786 and 1.488
MBC data (outgrowth) ([7]; 0.63% NBDA): 1.806 and 1.787
MBC data (outgrowth) ([7]; 1.25% NBDA): 0.074 and 0.071
MBC data (outgrowth) ([7]; 2.50% NBDA): 0.068 and 0.070
MBC data (outgrowth) ([7]; 5.00% NBDA): 0.066 and 0.060
MBC (%) [8]: 1.25%
MBC data (outgrowth) ([8]; 0.02% NBDA): 0.346 and 0.323
MBC data (outgrowth) ([8]; 0.04% NBDA): 0.307 and 0.283
MBC data (outgrowth) ([8]; 0.08% NBDA): 0.311 and 0.304
MBC data (outgrowth) ([8]; 0.16% NBDA): 0.251 and 0.232
MBC data (outgrowth) ([8]; 0.31% NBDA): 0.802 and 0.522
MBC data (outgrowth) ([8]; 0.63% NBDA): 0.277 and 0.427
MBC data (outgrowth) ([8]; 1.25% NBDA): 0.072
MBC data (outgrowth) ([8]; 2.50% NBDA): 0.070 and 0.068
MBC data (outgrowth) ([8]; 5.00% NBDA): 0.062 and 0.058
MBC (%) [9]: 0.63%
